Measured values reported in patent US20240174697A1, “PH-ACTIVABLE FLUORESCENT PROBES FOR TARGETING CELL ORGANELLES” (Purdue Research Foundation, priority 2021, published 2024).

Assays:
[1] = Absorption and fluorescence spectra at different pH solutions, pKa; type: physicochemical; conditions: for pH at which high fluorescence is shown: pH buffer solutions; for emission maximum: excitation 480 nm; for emission maximum / absorption maximum: pH solutions of phosphate buffer, 1% DMSO; for pKa: PBS buffer at varying pH, 1% (v/v) DMSO, probe 10 μM, room temperature
Protocol: Spectrum recorded at room temperature in PBS buffer at varying pH with 1% (v/v) of DMSO, in all cases probe concentration=10 μM.
Next, we investigated the absorption and fluorescent properties of LysoShine 1, LysoShine 2, and MitoShine (FIG. 2). The LysoShine 1 in different pH solutions of phosphate buffer (1% DMSO in 1M PBS) has an absorption centered around 500 nm and emission maximum at 505 nm with 480 nm excitation. […] We tested the mitochondrial targeting property of MitoShine (max. absorption 505 nm, max. emission 535 nm, excitation 480 nm). […] We also tested the photophysical property of the important synthetic intermediate compound 10 (absorption maximum 505 nm, max, emission 510 nm at excitation 480 nm).

[2] = Solubility in aqueous medium / pH solutions; type: physicochemical; conditions: for solubility upon addition of pH solutions: final DMSO concentration 1%
BV2 microglia [3] = assay: LDH cytotoxicity assay on BV2 microglia; type: cell-based, mouse; conditions: for cytotoxicity (LDH release): 2 hour, any tested doses (1, 5, 10 μM), BV2
Protocol: The dried fluorescent probes powders were resuspended in cell grade DMSO to prepare 5 mM stock solutions. This stock was used to make a 1, 5, or 10 μM dilution of the probe in cell culture media. The diluted probe solutions were filtered through 0.22 µm filters before adding to the cells.
The cytotoxicity of the fluorescent probes was determined using the Invitrogen™ CyQUANT™ LDH Cytotoxicity Assay kit which measures the release of Lactate dehydrogenase (LDH) from the dead and dying cells. The assay was performed per the manufacturer's protocol. Briefly, BV2 cells (5000 cells/100 μL/well) were seeded in a 96 well plate and cultured for 24 hours at 37° C. in a 5% CO2 incubator. After 24 hours, the media was removed, and the cells were treated with 1, 5, or 10 μM of the probes for 2 or 24 hours of incubation. Three additional wells were treated with the given lysis buffer for 45 minutes (positive control). After the corresponding incubation period, the total LDH release was measured using a fluorescent plate reader. The cells without any probe treatment correspond to spontaneous LDH release and were taken as negative control and the cells treated with the lysis buffer correspond to maximum LDH release. The percentage cytotoxicity of the probes was determined as follows: […]

BV2 microglia [4] = assay: Cellular uptake of the fluorescent probes; type: in vitro ADME, mouse; conditions: BV2 microglia (FIG. 7)
Protocol: FIG. 7 describes percent uptake efficiency of the fluorescent probes in BV2 microglia. Cellular uptake of the probe at different concentrations after two hours of incubation. The % uptake efficiency was determined as the percentage of probe taken up by cells out of the total amount of probe in the initial incubation solution. Bars depict n=3 data with SD.
Cellular uptake of the florescent probes was determined in-vitro as following: BV2 cells (20,000 cells/well) were seeded in a 96 well plate and cultured overnight at 37° C. in a 5% CO2 incubator. Next day, the media was removed, and the cells were treated with 1, 5, or 10 μM of the probes for 2 hours. After incubation, the supernatant was collected, and the absorbance was recorded at the respective absorbance maxima of the probe. This was compared with absorbance of the probe in media without cells. The percent cellular uptake was calculated as percentage of […]:
% Uptake Efficiency=1-[Asupernatant×100/Aprobe]

BV2 microglia [5] = assay: Confocal imaging, localization of probes in BV2 microglia; type: cell-based, mouse; conditions: co-staining LysoTracker Red DND-99 / DAPI
Protocol: BV2 mouse microglia cells were generously gifted by Dr. Linda J. Van Eldik (University of Kentucky, USA). The BV-2 cell line was developed in the lab of Dr. Elisabetta Blasi at the University of Perugia, Italy. Cells were maintained at 37° C. and 5% CO2 in DMEM/Hams F-12 50/50 Mix supplemented with 10% Fetal Bovine Serum (FBS), 1% L-Glutamine, and 1% Penicillin/Streptomycin. For imaging experiments, 70,000 cells/2 mL/well were seeded on glass coverslips (Corning #12-553-450) in 6-well plates (Corning #08-772-1B). For flow cytometry experiments, 20,000 cells/0.5 mL were seeded in 24-well plates (Corning #3526).
(§1) The localization of the fluorescent probes was visualized using confocal microscopy. The cells were incubated with 10 μM probe for 2 hours and then the media was aspirated. The cells were then incubated with 100 nM LysoTracker (1 mM stock from Thermo #L7528) or with 0.5x MitoLite (1000-fold dilution from 500x stock of AAT Bioquest #22678) for 1.5 hours. The media was aspirated, and the cells were fixed with 4% paraformaldehyde for 10 mins followed by nuclear staining with 1 μM/mL DAPI for 5 mins. For BV2 microglia grown on glass coverslips, the coverslips were removed from the wells and transferred to glass slides with a drop of anti-fade reagent (Thermo Fisher Scientific #P36930). For primary mouse microglia grown in 35 mm glass-bottom dishes, the cells were treated with a few drops of the anti-fade reagent and taken for imaging. The images were captured on a Zeiss LSM 880 Upright Confocal microscope equipped with Plan-Apochromat 20x/0.8 objective.

primary mouse microglia [6] = assay: Flow cytometry analysis of probe fluorescence in live cells; type: cell-based; conditions: 10 μM, 2 hours
From the text: FIGS. 3A-3E. […] Modal corresponds to a percentage of the maximum count. […] US Ctrl is unstained control. Gating strategy and flow plots with commercial dyes in supporting information.
A detailed protocol for the isolation and culture of primary microglia from adult mouse brains is previously described^2. Briefly, CD11^+ primary microglia were isolated from adult C57BL/6 mice aged 5-7 months of age (both male and female sexes) and cultured as follows. Mice were euthanized with CO2 following the PACUC guidelines, perfused brains were removed and cut into small pieces before homogenizing them in DPBS++with 0.4% DNase-I on the tissue dissociator at 37° C. After filtering the cells through a 70 μm filter, myelin was removed two times, first using gradient centrifugation with Percoll PLUS reagent followed by the use of myelin removal beads on the magnetic column separators. After myelin removal, CD11^+ cells were selected from the single cell suspension using the CD11^+ beads as per the manufacturer's instructions. […]
Primary mouse microglia were treated with 1, 5, or 10 μM fluorescent probes for 2 hours for the cells to uptake the probe. […] Around 10-20 thousand cells were gated from the live cells in order to analyze the cellular fluorescence signal corresponding to the LysoShine/Lysotracker or Mitoshine/MitoLite probes.

primary mouse microglia [7] = assay: Confocal imaging, localization of probes in primary microglia; type: cell-based; conditions: 10 μM probe 2 hours, co-staining LysoTracker / MitoLite / DAPI
Protocol: A detailed protocol for the isolation and culture of primary microglia from adult mouse brains is previously described^2. Briefly, CD11^+ primary microglia were isolated from adult C57BL/6 mice aged 5-7 months of age (both male and female sexes) and cultured as follows. Mice were euthanized with CO2 following the PACUC guidelines, perfused brains were removed and cut into small pieces before homogenizing them in DPBS++with 0.4% DNase-I on the tissue dissociator at 37° C. After filtering the cells through a 70 μm filter, myelin was removed two times, first using gradient centrifugation with Percoll PLUS reagent followed by the use of myelin removal beads on the magnetic column separators. After myelin removal, CD11^+ cells were selected from the single cell suspension using the CD11^+ beads as per the manufacturer's instructions. The CD11^+ cells were finally resuspended in microglia growth media, further diluted in TIC (TGF-β, IL-34, and cholesterol containing) media containing 2% FBS before seeding 0.1×10^6 cells/500 μL/well of a 24-well plate. The cells were maintained at 37° C. and 10% CO2 with half-media change every other day until the day of compound treatment (around 12-14 div). For confocal imaging experiments, around 50,000 cells/2 mL cells were sub-cultured at the center of 35 mm glass-bottom imaging dishes (FluoroDish™ #FD35).
as §1, with “For primary mouse microglia grown in 35 mm glass-bottom dishes, the cells were treated with a few drops of the anti-fade reagent and taken for imaging. The images were captured on a Zeiss LSM 880 Upright Confocal microscope equipped with Plan-Apochromat 20x/0.8 objective.” left out

Structure (SMILES) | pH at which high fluorescence is shown [1] | fluorescence spectrum in pH buffers ([1]; pH buffers, solubility affected) | solubility in aqueous medium ([2]; aqueous medium) | cytotoxicity to BV2 cells (BV2 microglia [3]; BV2 cells) | emission maximum [1] | absorption maximum [1] | cell permeability (BV2 microglia [4]) | localization of the probe within cell organelles (BV2 microglia [5]) | fluorescent intensity within the cells (primary mouse microglia [6]) | cytotoxicity (LDH release) (BV2 microglia [3]) | localization of the probe within cell organelles (primary mouse microglia [7]) | pKa [1] | solubility upon addition of pH solutions [2]
CCOC(=O)C1=C(C)C2=C(c3ccc(N(C)C)cc3)c3c(C)c(C(=O)OCC)c(C)n3[B-](F)(F)[N+]2=C1C [Compound 5, Diethyl 10-(4-(dimethylamino)phenyl)-5,5-difluoro-1,3,7,9-tetramethyl-5H-4λ^4, 5λ^4-dipyrrolo[1,2-c:2′,1′-f][1,3,2]diazaborinine-2,8-dicarboxylate] | ≤ 2.0 |  |  |  |  |  |  |  |  |  |  |  | 
CCOC(=O)C1=C(C)C2=C(c3ccc(N(C)C)cc3)c3c(C)c(C(=O)OCC)c(C=Cc4ccc(O)cc4)n3[B-](F)(F)[N+]2=C1C [Compound 6a, Diethyl (E)-10-(4-(dimethylamino)phenyl)-5,5-difluoro-3-(4-hydroxystyryl)-1,7,9-trimethyl-5H-414,514-dipyrrolo[1,2-c:2′,1′-f][1,3,2]diazaborinine-2,8-dicarboxylate] |  | did not generate a fluorescence spectrum | sparingly soluble |  |  |  |  |  |  |  |  |  | 
CCOC(=O)C1=C(C)C2=C(c3ccc(NC(=O)CBr)cc3)c3c(C)c(C(=O)OCC)c(C)n3[B-](F)(F)[N+]2=C1C [Compound 10, Diethyl 10-(4-(2-bromoacetamido)phenyl)-5,5-difluoro-1,3,7,9-tetramethyl-5H-414,514-dipyrrolo[1,2-c:2′,1′-f][1,3,2]diazaborinine-2,8-dicarboxylate] | less than 3 |  |  | not cytotoxic | 510 nm | 505 nm | cell permeable | colocalized with nuclei staining dye DAPI |  |  |  |  | 
CCOC(=O)C1=C(C)C2=C(c3ccc(NC(=O)CN(CC)CC)cc3)c3c(C)c(C(=O)OCC)c(C)n3[B-](F)(F)[N+]2=C1C [LysoShine 1, Diethyl 10-(4-(2-(diethylamino)acetamido)phenyl)-5,5-difluoro-1,3,7,9-tetramethyl-5H-4λ^4, 5λ^4-dipyrrolo[1,2-c:2′, 1′-f][1,3,2]diazaborinine-2,8-dicarboxylate] | 4 |  |  |  | 505 nm | around 500 nm |  | co-colocalization | higher fluorescent intensity than LysoShine 2 | did not show any cytotoxicity | co-localized with the LysoTracker dye within the acidic lysosomes | 5.4 | maintains its solubility
CCOC(=O)C1=C(C)C2=C(c3ccc(NC(=O)CNCCN4CCOCC4)cc3)c3c(C)c(C(=O)OCC)c(C)n3[B-](F)(F)[N+]2=C1C [LysoShine 2, Diethyl 5,5-difluoro-1,3,7,9-tetramethyl-10-(4-(2-((2-morpholinoethyl)amino)acetamido)phenyl)-5H-4λ^4, 5λ^4-dipyrrolo[1,2-c:2′,1′-f][1,3,2]diaza-borinine-2,8-dicarboxylate] | less than 6 |  |  |  | 512 nm | 500 nm |  | co-colocalization |  | did not show any cytotoxicity | co-localized with the LysoTracker dye within the acidic lysosomes | 6.0 | maintains its solubility
